Test [1] concerns human normal skin keratinocytes on collagen gel containing normal human skin fibroblasts (NHDF). Briefly: Three-dimensional cultured skin on a sugar-containing dermal cell structure (Test Example 1). The test is classed as cell-based. To be noted: 30 mg/mL sugar added instead of trehalose to collagen gel containing fibroblasts. Here is the method:
Subsequently, about 1 mL of the gel obtained was poured into a transwell-collagen coated insert (catalog number: 3492, manufactured by Costar; pore size: 3.0 μm, surface area: 4.67 cm^2), which is a cell culture insert, and allowed to stand in an incubator for 5 minutes or more. 5 mL of DMEM containing 10 v/v % FCS and 1 v/v % ABAM (Antibiotics-Antimycotic solution, 100×, manufactured by ThermoFisher Scientific Inc.) in which normal human skin fibroblasts (NHDF, manufactured by Cambrex Corporation) were suspended at a cell density of 5×10^5 cells/mL was added to 29 mL of the gel solution I. About 3.5 mL of a gel solution containing the cells was added to the cell culture insert, and the mixture was allowed to stand in a 37° C. incubator for 30 minutes to gel.
• (2) Next, the collagen gel (layered dermal cell structure) containing NHDF was pre-cultured for 5 days using a DMEM medium containing 50 μg/ml ascorbic acid, 10 v/v % FCS, and 1 v/v % ABAM. Next, human normal skin keratinocytes suspended in MCDB medium were seeded on the collagen gel surface so as to be 1.28×10^5 cells/cm^2, and a medium obtained by mixing equal amounts of MCDB Type-II medium (Growth Medium 2 in JP-B2-3066624) and EGM was added to an external liquid of the cell culture insert and the inside of the insert, followed by culturing at 37° C. for 2 days.
• (3) The medium was replaced with a cornification medium (CM medium), and the cell culture insert was placed such that a porous membrane of the cell culture insert was located at a gas-liquid interface of the cornification medium. In this state, the cells were subjected to gas-liquid interface culture at 37° C. for 7 to 14 days to induce differentiation, thereby obtaining three-dimensional cultured skin. The medium was replaced every two days from the start of the culture.

Test [2] deals with EREG, ARG2, CCL2, IL1RN, PGF, SPP1, VEGFA, AREG and DPT mRNA. Briefly: qPCR of genes in monolayer fibroblasts, 24 hours (Test Example 3-3). The test is classed as cell-based, human. The following applies: group treated with hyaluronic acid oligosaccharides (HA oligo). The protocol: In the same manner as in Test Example 3-2, NHDF was cultured in 1% FCS and 1% ABAM-containing DMEM medium containing 0, 30, or 100 mg/mL trehalose or hyaluronic acid oligosaccharide 4mer (HA4) (product code 11006, manufactured by Cosmo Bio Co., Ltd.) for 24 hours, and RNA was recovered from the cells. Also, as a control, RNA was recovered from fibroblasts before treatment (0 h in FIG. 9). The obtained sample was subjected to the same operation as in Test Example 3-2, and qPCR for genes EREG, ARG2, CCL2, IL1RN, PGF, SPP1, VEGFA, AREG and DPT was performed. GAPDH was used as a reference gene.
For orientation: Quantitative PCR measures a nucleic acid by following its amplification.

Turning to `O=C(CO)[C@@H](O)[C@H](O)[C@H](O)CO` [fructose, reference compound], in test [1], the “formation of epithelial tissue layer” value is “no epithelial tissue layer was formed”.

For the compound `OC[C@H]1O[C@@](CO)(O[C@H]2O[C@H](CO)[C@@H](O)[C@H](O)[C@H]2O)[C@@H](O)[C@@H]1O` [sucrose, reference compound], the “formation of epithelial tissue layer” value in test [1] is given as “no epithelial tissue layer was formed”.

For the compound “hyaluronic acid oligosaccharide 4mer [hyaluronic acid oligosaccharides, reference compound]”, the “increase in mRNA expression level of genes EREG, ARG2, CCL2, IL1RN, PGF, SPP1, VEGFA, AREG and DPT” value in test [2] is given as “not observed”.

The record behind these values is patent US20250270513A1, “METHOD FOR PRODUCING CULTURED TISSUE, AND PREPARATION FOR EXTERNAL APPLICATION” (National University Corporation Ehime University, priority 2019, published 2025).
